Test results reported in PubChem BioAssay AID1918998 (Molecular Pharmacology Branch, DTP, NCI, 2023).

Test system: 521955-158-R2-J5-PDC complex spheroid growth
Experiment: Anticancer human tumor 521955-158-R2-J5-PDC patient-derived pancreatic carcinoma cell line growth inhibition [AhR]
Conditions: for IC50: curve of first compound; for viability, T/C: stronger effect = lower value; active means viability on the fitted dose curve at most 10% of control; inactive means the rest
Outline: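 Agents were dosed in half-log steps down from roughly clinical Cmax, or from 10 microM where Cmax was unknown, alone and with AhR antagonists. Read-out: percent test/control growth of tumor spheroids containing HUVEC and MSC stromal cells.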

[1] = second compound 0.1 µM, first compound 0.0316 µM
[2] = second compound 0.1 µM, first compound 0.1 µM
[3] = second compound 0.1 µM, first compound 0.316 µM
[4] = second compound 0.1 µM, first compound 1 µM
[5] = second compound 0.1 µM, first compound 3.16 µM
[6] = second compound 0.1 µM, first compound 10 µM
[7] = second compound 0.316 µM, first compound 0.0316 µM
[8] = second compound 0.316 µM, first compound 0.1 µM
[9] = second compound 0.316 µM, first compound 0.316 µM
[10] = second compound 0.316 µM, first compound 1 µM
[11] = second compound 0.316 µM, first compound 3.16 µM
[12] = second compound 0.316 µM, first compound 10 µM
[13] = second compound 1 µM, first compound 0.0316 µM
[14] = second compound 1 µM, first compound 0.1 µM
[15] = second compound 1 µM, first compound 0.316 µM
[16] = second compound 1 µM, first compound 1 µM
[17] = second compound 1 µM, first compound 3.16 µM
[18] = second compound 1 µM, first compound 10 µM
[19] = second compound 3.16 µM, first compound 0.0316 µM
[20] = second compound 3.16 µM, first compound 0.1 µM
[21] = second compound 3.16 µM, first compound 0.316 µM
[22] = second compound 3.16 µM, first compound 1 µM
[23] = second compound 3.16 µM, first compound 3.16 µM
[24] = second compound 3.16 µM, first compound 10 µM
[25] = second compound 10 µM, first compound 0.0316 µM
[26] = second compound 10 µM, first compound 0.1 µM
[27] = second compound 10 µM, first compound 0.316 µM
[28] = second compound 10 µM, first compound 1 µM
[29] = second compound 10 µM, first compound 3.16 µM
[30] = second compound 10 µM, first compound 10 µM
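Wherever viability, T/C is given: spheroids mix tumor cells with HUVEC endothelium and human MSC stroma; luminescence taken as viability surrogate after a week of drug exposure.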

COc1cc(C2c3cc4c(cc3C(OC3OC5COC(C)OC5C(O)C3O)C3COC(=O)C23)OCO4)cc(OC)c1O (stereo not given) + Cc1ccccc1N=Nc1ccc(NC(=O)c2ccnn2C)c(C)c1
inactive: viability, T/C [1] 99.3% | viability, T/C [2] 78.2% | viability, T/C [3] 81.2% | viability, T/C [4] 39% | viability, T/C [5] 26% | viability, T/C [6] 17.6% | viability, T/C [7] 83.6% | viability, T/C [8] 108% | viability, T/C [9] 83.4% | viability, T/C [10] 31.9% | viability, T/C [11] 23.9% | viability, T/C [12] 20% | viability, T/C [13] 131% | viability, T/C [14] 97.3% | viability, T/C [15] 80% | viability, T/C [16] 49% | viability, T/C [17] 22.8% | viability, T/C [18] 18.4% | viability, T/C [19] 139% | viability, T/C [20] 118% | viability, T/C [21] 104% | viability, T/C [22] 40.6% | viability, T/C [23] 27.3% | viability, T/C [24] 17.9% | viability, T/C [25] 131% | viability, T/C [26] 140% | viability, T/C [27] 112% | viability, T/C [28] 59.9% | viability, T/C [29] 38.5% | viability, T/C [30] 22.9%
1.01 µM: IC50 (second compound 1 µM)
0.668 µM: IC50 (second compound 0.316 µM)
1.58 µM: IC50 (second compound 10 µM)
0.88 µM: IC50 (second compound 3.16 µM)
0.755 µM: IC50 (second compound 0.1 µM)

COc1cccc2c1C(=O)c1c(O)c3c(c(O)c1C2=O)CC(O)(C(=O)CO)CC3OC1CC(N)C(O)C(C)O1 (stereo not given) + Cc1ccccc1N=Nc1ccc(NC(=O)c2ccnn2C)c(C)c1
< 0.0316 µM: IC50 (second compound 0.1 µM) | IC50 (second compound 3.16 µM)
0.0369 µM: IC50 (second compound 0.316 µM)
0.165 µM: IC50 (second compound 10 µM)
inactive: viability, T/C [1] 40.6% | viability, T/C [2] 34.4% | viability, T/C [3] 28.5% | viability, T/C [4] 6.16% | viability, T/C [7] 53.9% | viability, T/C [8] 33.6% | viability, T/C [9] 34% | viability, T/C [10] 7.86% | viability, T/C [13] 55% | viability, T/C [14] 34.9% | viability, T/C [15] 30.1% | viability, T/C [16] 4.75% | viability, T/C [19] 55.6% | viability, T/C [20] 39.9% | viability, T/C [21] 34.3% | viability, T/C [22] 6.42% | viability, T/C [25] 89.7% | viability, T/C [26] 63% | viability, T/C [27] 34.4%
0.0421 µM: IC50 (second compound 1 µM)
active: viability, T/C [5] 2.14% | viability, T/C [6] 9.5% | viability, T/C [11] 3.02% | viability, T/C [12] 11.5% | viability, T/C [17] 2.47% | viability, T/C [18] 11.2% | viability, T/C [23] 4.98% | viability, T/C [24] 9.42% | viability, T/C [28] 3.83% | viability, T/C [29] 2.39% | viability, T/C [30] 7.28%

Nc1ncn(C2CC(O)C(CO)O2)c(=O)n1 (stereo not given) + Cc1ccccc1N=Nc1ccc(NC(=O)c2ccnn2C)c(C)c1
0.811 µM: IC50 (second compound 0.316 µM)
inactive: viability, T/C (second compound 0.1 µM, first compound 0.00316 µM) 79% | viability, T/C (second compound 0.1 µM, first compound 0.01 µM) 86.1% | viability, T/C [1] 92.4% | viability, T/C [2] 62.6% | viability, T/C [3] 55.5% | viability, T/C [4] 50.7% | viability, T/C (second compound 0.316 µM, first compound 0.00316 µM) 88.5% | viability, T/C (second compound 0.316 µM, first compound 0.01 µM) 104% | viability, T/C [7] 86.6% | viability, T/C [8] 83.8% | viability, T/C [9] 61.9% | viability, T/C [10] 47.4% | viability, T/C (second compound 1 µM, first compound 0.00316 µM) 90.5% | viability, T/C (second compound 1 µM, first compound 0.01 µM) 126% | viability, T/C [13] 96.6% | viability, T/C [14] 90.2% | viability, T/C [15] 94.2% | viability, T/C [16] 65.4% | viability, T/C (second compound 3.16 µM, first compound 0.00316 µM) 106% | viability, T/C (second compound 3.16 µM, first compound 0.01 µM) 120% | viability, T/C [19] 110% | viability, T/C [20] 88.3% | viability, T/C [21] 104% | viability, T/C [22] 67.1% | viability, T/C (second compound 10 µM, first compound 0.00316 µM) 138% | viability, T/C (second compound 10 µM, first compound 0.01 µM) 147% | viability, T/C [25] 140% | viability, T/C [26] 127% | viability, T/C [27] 95.2% | viability, T/C [28] 88%
> 1 µM: IC50 (second compound 0.1 µM) | IC50 (second compound 1 µM) | IC50 (second compound 3.16 µM) | IC50 (second compound 10 µM)
